Measured values from PubChem BioAssay (NCI).
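Step 1: Grow cells in 96-well plates. Step 2: Expose to compound for 48 hours at 5 concentrations. Step 3: Interpolate endpoints linearly; if unreached, use highest concentration. Abbreviation: GI50, concentration required for 50% inhibition of growth. TGI is the concentration that stops growth completely.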

How the values were obtained:
Assay in all cases: NCI anticancer screen, dose series, 48 h
RXF 393 renal = system: RXF 393 renal
NCI-H460 lung = system: NCI-H460 lung
NCI-H522 lung = system: NCI-H522 lung
U251 CNS = system: U251 CNS
SF-268 CNS = system: SF-268 CNS
A498 renal = system: A498 renal
786-0 renal = system: 786-0 renal
TK-10 renal = system: TK-10 renal
IGROV1 ovarian = system: IGROV1 ovarian
SNB-75 CNS = system: SNB-75 CNS

**Q.** `Nc1cc(N)c2nc(NCCc3ccc(Cl)c(Cl)c3)cnc2c1` was tested. Which GI50 (RXF 393 renal) did it give?
**A.** Its GI50 is 13.8 µM.

**Q.** And the TGI (RXF 393 renal)?
**A.** Its TGI is 30.2 µM.

**Q.** And the GI50 (NCI-H460 lung)?
**A.** Its GI50 is 15.4 µM.

**Q.** And the TGI (NCI-H460 lung)?
**A.** The TGI was 35 µM.

**Q.** What about the GI50 (NCI-H522 lung) of the same compound?
**A.** The GI50 was 12.6 µM.

**Q.** And the TGI (NCI-H522 lung)?
**A.** The TGI was 33.7 µM.

**Q.** And the GI50 (U251 CNS)?
**A.** The GI50 was 11.7 µM.

**Q.** And the TGI (U251 CNS)?
**A.** Its TGI is 23.9 µM.

**Q.** What about the GI50 (SF-268 CNS) of the same compound?
**A.** The GI50 was 4.7 µM.

**Q.** What about the TGI (SF-268 CNS) of the same compound?
**A.** Its TGI is 17.6 µM.

**Q.** And the GI50 (A498 renal)?
**A.** The GI50 was 20.3 µM.

**Q.** What about the TGI (A498 renal) of the same compound?
**A.** The TGI was 34.5 µM.

**Q.** And the GI50 (786-0 renal)?
**A.** The GI50 was 16.5 µM.

**Q.** And the TGI (786-0 renal)?
**A.** Its TGI is 32.9 µM.

**Q.** And the GI50 (TK-10 renal)?
**A.** The GI50 was 18.5 µM.

**Q.** And the TGI (TK-10 renal)?
**A.** Its TGI is 33.3 µM.

**Q.** What about the GI50 (IGROV1 ovarian) of the same compound?
**A.** The GI50 was 14.5 µM.

**Q.** What about the TGI (IGROV1 ovarian) of the same compound?
**A.** The TGI was 28.7 µM.

**Q.** And the GI50 (SNB-75 CNS)?
**A.** The GI50 was 14.2 µM.

**Q.** What about the TGI (SNB-75 CNS) of the same compound?
**A.** Its TGI is 27.2 µM.

**Q.** Which TGI (RXF 393 renal) does the source give for `CC[As](CC)SCC1OC(OC(C)=O)C(OC(C)=O)C(OC(C)=O)C1OC(C)=O` (centres undefined) here?
**A.** Its TGI is 9.69 µM.

**Q.** What about the TGI (NCI-H460 lung) of the same compound?
**A.** The TGI was 31.3 µM.

**Q.** And the TGI (NCI-H522 lung)?
**A.** The TGI was 3.2 µM.

**Q.** What about the TGI (U251 CNS) of the same compound?
**A.** The TGI was 25.3 µM.

**Q.** What about the TGI (SF-268 CNS) of the same compound?
**A.** The TGI was 25.8 µM.

**Q.** What about the TGI (A498 renal) of the same compound?
**A.** Its TGI is 38.9 µM.

**Q.** What about the TGI (786-0 renal) of the same compound?
**A.** Its TGI is 28.1 µM.

**Q.** And the TGI (TK-10 renal)?
**A.** The TGI was 30.4 µM.

**Q.** And the TGI (IGROV1 ovarian)?
**A.** Its TGI is 33.8 µM.

**Q.** And the TGI (SNB-75 CNS)?
**A.** Its TGI is 52.7 µM.

**Q.** Which results are given for `CC1=CC[C@@H](C(C)(C)O)C[C@@H]1O`?
**A.** TGI (RXF 393 renal): > 5000 µM; TGI (NCI-H460 lung): > 5000 µM; TGI (NCI-H522 lung): > 5000 µM; TGI (U251 CNS): > 5000 µM; TGI (SF-268 CNS): > 5000 µM; TGI (A498 renal): > 5000 µM; TGI (786-0 renal): > 5000 µM; TGI (TK-10 renal): > 5000 µM; TGI (IGROV1 ovarian): > 5000 µM; TGI (SNB-75 CNS): > 5000 µM

**Q.** How did the GI50 (RXF 393 renal) turn out when `CC[C@@H](C)/C=C(C)/C=C/C(=O)c1c(O)c(-c2ccc(O)cc2)cn(OC2CC(=O)CCC(C)OC(=O)CC2O)c1=O` (some centres undefined) was run?
**A.** The GI50 was 0.386 µM.

**Q.** What about the TGI (RXF 393 renal) of the same compound?
**A.** Its TGI is 17.8 µM.

**Q.** And the GI50 (NCI-H460 lung)?
**A.** Its GI50 is 0.267 µM.

**Q.** And the TGI (NCI-H460 lung)?
**A.** The TGI was 2.99 µM.

**Q.** What about the GI50 (NCI-H522 lung) of the same compound?
**A.** Its GI50 is 0.419 µM.

**Q.** And the TGI (NCI-H522 lung)?
**A.** The TGI was 11.5 µM.

**Q.** And the GI50 (U251 CNS)?
**A.** Its GI50 is 0.373 µM.

**Q.** What about the TGI (U251 CNS) of the same compound?
**A.** Its TGI is 12.5 µM.

**Q.** And the GI50 (SF-268 CNS)?
**A.** Its GI50 is 0.282 µM.

**Q.** What about the TGI (SF-268 CNS) of the same compound?
**A.** Its TGI is 9.39 µM.

**Q.** What about the GI50 (A498 renal) of the same compound?
**A.** The GI50 was 1.98 µM.

**Q.** What about the TGI (A498 renal) of the same compound?
**A.** Its TGI is 24 µM.

**Q.** And the GI50 (786-0 renal)?
**A.** The GI50 was 0.386 µM.

**Q.** And the TGI (786-0 renal)?
**A.** The TGI was 4.09 µM.

**Q.** And the GI50 (TK-10 renal)?
**A.** The GI50 was 0.442 µM.

**Q.** And the TGI (TK-10 renal)?
**A.** The TGI was 19.9 µM.

**Q.** What about the GI50 (IGROV1 ovarian) of the same compound?
**A.** Its GI50 is 0.316 µM.

**Q.** And the TGI (IGROV1 ovarian)?
**A.** The TGI was 4.66 µM.

**Q.** What about the GI50 (SNB-75 CNS) of the same compound?
**A.** The GI50 was 1.07 µM.

**Q.** And the TGI (SNB-75 CNS)?
**A.** The TGI was 19.3 µM.

**Q.** Which TGI (RXF 393 renal) does the source give for `Cc1cc(C)nc(NS(=O)(=O)c2ccc(NC(=O)COC(=O)c3cccc4c(=O)c5ccccc5[nH]c34)cc2)n1` here?
**A.** Its TGI is 74.5 µM.

**Q.** And the TGI (NCI-H460 lung)?
**A.** Its TGI is > 100 µM.

**Q.** What about the TGI (NCI-H522 lung) of the same compound?
**A.** The TGI was 70.9 µM.

**Q.** What about the TGI (U251 CNS) of the same compound?
**A.** The TGI was 38.4 µM.

**Q.** What about the TGI (SF-268 CNS) of the same compound?
**A.** Its TGI is > 100 µM.

**Q.** And the TGI (A498 renal)?
**A.** Its TGI is > 100 µM.

**Q.** And the TGI (786-0 renal)?
**A.** The TGI was 58.9 µM.

**Q.** What about the TGI (TK-10 renal) of the same compound?
**A.** Its TGI is > 100 µM.

**Q.** And the TGI (IGROV1 ovarian)?
**A.** Its TGI is > 100 µM.

**Q.** And the TGI (SNB-75 CNS)?
**A.** The TGI was 73.5 µM.

**Q.** `CN(C)CCCCNc1ccc(NCCCCN(C)C)c2c1C(=O)c1c(O)ccc(O)c1C2=O` was tested. Which GI50 (RXF 393 renal) did it give?
**A.** The GI50 was 1.75 µM.

**Q.** What about the TGI (RXF 393 renal) of the same compound?
**A.** Its TGI is 11.2 µM.

**Q.** What about the GI50 (NCI-H460 lung) of the same compound?
**A.** Its GI50 is 1.59 µM.

**Q.** And the TGI (NCI-H460 lung)?
**A.** Its TGI is 2.94 µM.

**Q.** What about the GI50 (NCI-H522 lung) of the same compound?
**A.** Its GI50 is 1.77 µM.

**Q.** And the TGI (NCI-H522 lung)?
**A.** Its TGI is 3.58 µM.

**Q.** And the GI50 (U251 CNS)?
**A.** Its GI50 is 1.69 µM.

**Q.** And the TGI (U251 CNS)?
**A.** Its TGI is 3.08 µM.

**Q.** And the GI50 (SF-268 CNS)?
**A.** The GI50 was 10.4 µM.

**Q.** What about the TGI (SF-268 CNS) of the same compound?
**A.** Its TGI is 22.1 µM.

**Q.** What about the GI50 (A498 renal) of the same compound?
**A.** Its GI50 is 13.5 µM.

**Q.** What about the TGI (A498 renal) of the same compound?
**A.** The TGI was 26.3 µM.

**Q.** And the GI50 (786-0 renal)?
**A.** Its GI50 is 1.76 µM.

**Q.** What about the TGI (786-0 renal) of the same compound?
**A.** The TGI was 3.14 µM.

**Q.** And the GI50 (TK-10 renal)?
**A.** The GI50 was 13.3 µM.

**Q.** What about the TGI (TK-10 renal) of the same compound?
**A.** Its TGI is 26.4 µM.

**Q.** What about the GI50 (IGROV1 ovarian) of the same compound?
**A.** The GI50 was 1.52 µM.

**Q.** What about the TGI (IGROV1 ovarian) of the same compound?
**A.** The TGI was 3.03 µM.

**Q.** What about the GI50 (SNB-75 CNS) of the same compound?
**A.** The GI50 was 12.8 µM.

**Q.** What about the TGI (SNB-75 CNS) of the same compound?
**A.** The TGI was 25.3 µM.

**Q.** Which GI50 (RXF 393 renal) does the source give for `O=C1OCC2=C1C(c1cccc(Cl)c1)c1cc3c(cc1N2CCO)CCC3` (centres undefined) here?
**A.** Its GI50 is 0.0238 µM.

**Q.** What about the GI50 (NCI-H460 lung) of the same compound?
**A.** Its GI50 is 0.038 µM.

**Q.** What about the TGI (NCI-H460 lung) of the same compound?
**A.** Its TGI is 4.12 µM.

**Q.** And the GI50 (NCI-H522 lung)?
**A.** The GI50 was 0.0203 µM.

**Q.** And the TGI (NCI-H522 lung)?
**A.** The TGI was 0.0603 µM.

**Q.** And the GI50 (U251 CNS)?
**A.** The GI50 was 0.0372 µM.

**Q.** What about the TGI (U251 CNS) of the same compound?
**A.** The TGI was 4.5 µM.

**Q.** And the GI50 (SF-268 CNS)?
**A.** Its GI50 is 0.0653 µM.

**Q.** And the TGI (SF-268 CNS)?
**A.** Its TGI is 10.5 µM.

**Q.** And the GI50 (A498 renal)?
**A.** Its GI50 is 0.0215 µM.

**Q.** And the TGI (A498 renal)?
**A.** The TGI was 0.0947 µM.

**Q.** And the GI50 (786-0 renal)?
**A.** The GI50 was 0.0485 µM.

**Q.** And the TGI (786-0 renal)?
**A.** The TGI was 10.8 µM.

**Q.** And the GI50 (TK-10 renal)?
**A.** The GI50 was 0.0464 µM.

**Q.** And the TGI (TK-10 renal)?
**A.** The TGI was 16.3 µM.

**Q.** What about the GI50 (IGROV1 ovarian) of the same compound?
**A.** Its GI50 is 0.121 µM.

**Q.** And the TGI (IGROV1 ovarian)?
**A.** The TGI was 15.6 µM.

**Q.** And the GI50 (SNB-75 CNS)?
**A.** The GI50 was 0.027 µM.

**Q.** And the TGI (SNB-75 CNS)?
**A.** Its TGI is 17.7 µM.
